Source: US10023864B2, “Methods of treating a metabolic syndrome by modulating heat shock protein (HSP) 90-beta” (Berg LLC, priority 2014, dated 2018)
Entries after “also recorded” stand apart in the source; their conditions may differ. d = 2'-deoxy (DNA); m = 2'-O-methyl

What was measured:
[1] = test system: DIO mice; assay: Insulin level in DIO mice; assay type: in vivo, mouse
Protocol: (§1) The mice were divided into four groups: (1) lean (non-diabetic control); (2) diabetic receiving control ASO (NC-ASO); (3) diabetic receiving ASO5; and (4) diabetic receiving ASO6. In various experiments mice were dosed intra-peritoneally with twice per week injection of ASO at […] body weight for 4 or 8 weeks. Skeletal muscles were subjected to quantitative PCR.
Further, the effect of the reduction of Hsp90ab1 protein level on plasma insulin levels was examined.

[2] = test system: Hsp90ab1 mRNA; assay: Hsp90ab1 mRNA in gastrocnemius muscles of DIO mice (quantitative PCR); assay type: in vivo, mouse; conditions: ASO intra-peritoneally twice per week
Protocol: as §1

[3] = test system: DIO mice; assay: Fed / plasma glucose level in DIO mice; assay type: in vivo, mouse
Protocol: as §1
Additional experiments were performed to determine the effect of the reduction of Hsp90ab1 protein level on the level of glucose in plasma. […] Thus, treatment with an Hsp90ab1 selective ASO is effective for improving glucose utilization in DIO mice.

[4] = test system: skeletal muscles of DIO mice; assay: Skeletal muscle gene expression and PDH-E1α phosphorylation in DIO mice; assay type: in vivo, mouse
Source text: PDK4 is known to phosphorylate pyruvate dehydrogenase (PDH)-E1α subunit, thereby inhibiting PDH and downregulating mitochondrial glucose oxidation. […] This decrease in phosphorylation is indicative of an increase in active PDH-E1α and a resultant increase in mitochondrial glucose oxidation. Thus, ASO mediated Hsp90ab1 knock-down is effective for enhancing substrate metabolism through suppression of PDK4 expression.
These genes are PFKM (phosphofructokinase, muscle), ALDOA (aldolase A), GYS1 (glycogen synthase 1) ACCA (Acetyl-CoA carboxylase), HSL (Hormone sensitive lipase), SCD1 (Stearoyl-CoA desaturase), ACADL (Acyl-CoA Dehydrogenase), and CPT1b (Carnitine palmitoyltransferase I). Gene expression was examined in the skeletal muscles of the mice.

[5] = test system: human Hsp90AB1 protein; assay: Knockdown of Hsp90AB1 protein in HSMM by Western blotting; assay type: cell-based; conditions: Western blot, normalized to actin, vs NC1
Protocol: ASO1-ASO6 were tested for their ability to knock down human Hsp90AB1 levels in HSMM myotubes. The effectiveness of oligonucleotides ASO1 (A1), ASO2 (A2) ASO3 (A3) ASO4 (A4) ASO5 (A5) and ASO6 (A6) in knocking down the expression of HSP90AB1 protein is shown by Western blotting in FIGS. 19A and 19B. The oligonucleotide NC1 was used as a negative control. HSP90Ab1 protein levels were normalized to the levels of actin.
The ASO oligonucleotides ASO5, ASO13 and ASO18 were tested for their ability to reduce expression of human Hsp90AB1 protein in human skeletal muscle myotubes (HSMM) and C2C12 mouse myoblasts by Western blotting. ASO5 was derived from the mouse HSP90ab1 gene, while ASO13 and ASO18 were directed to the human HSP90ab1 gene. The oligonucleotide NC1 was used as a negative control. HSP90AB1protein levels were normalized to the levels of actin.

[6] = test system: muscle of DIO mice; assay: Lipidomic analysis of muscle of DIO mice; assay type: in vivo, mouse
Source text: As noted in the above examples, Hsp90ab1 was identified as a critical node in Bayesian metabolic disease network derived by the interrogation of the biology underlying diabetes in a data driven manner. This was achieved by using a proprietary platform integrating pan-omic data, mitochondrial-centric metabolic fingerprint and phenotypic assays capturing metabolic dysregulation reminiscent of obesity/diabetes sequale. Hsp90ab1 is an ATPase targeting multiple clients including vital components of insulin signaling and mitochondrial membrane proteins. However the role of Hsp90ab1 in metabolism remains unknown. […] This was accompanied by decreased muscle PDH E1a phosphorylation, reflecting an increased insulin sensitivity and carbohydrate substrate metabolism. We also observed significant alteration in the lipidomic profile in these DIO mice treated with ASO6. For example ASO6-mediated knockdown of Hsp90ab1 in DIO mice increased 18:2 enriched species of cardiolipin in muscle. […] Taken together, our data provides novel evidence that Hsp90ab1 isoform is a key regulator of skeletal muscle cell metabolism and systemic metabolism, and represents a target for treatment of diabetes.

[7] = test system: human Hsp90AB1 mRNA; assay: Knockdown of Hsp90AB1 mRNA in HSMM myotubes; assay type: cell-based; conditions: normalized to cyclophilin, vs NC1ASO
Source text: The level of human Hsp90AB1 at the mRNA level was similarly observed to be reduced in HSMM myotubes treated with the exemplary mouse antisense oligonucleotide ASO6 (FIG. 20). ASO6 (and ASOs 1-5 and 7-9) is derived from the mouse HSP90AB1 gene. The oligonucleotide NC1ASO was again used as a negative control. The level of HSP90 mRNA was normalized to a control (cyclophilin) mRNA. The human and the mouse Hsp90aB1 gene share 96% homology.

[8] = test system: DIO mice; assay: Intraperitoneal glucose tolerance test (IPGTT) in DIO mice; assay type: in vivo, mouse; conditions: four weeks treatment, vs NC ASO
Protocol: Glucose tolerance tests (GTT) are performed after 6 h of fasting. Initial fasting blood glucose levels are determined, followed by intraperitoneal (ip) injection of 20% dextrose solution at a dose of 2.0 g/kg body weight (2 g/kg body weight). Blood glucose levels are measured from the tail vein at 15, 30, 60, 90, 120, 150, and 180 minutes after the glucose injection using a commercially available glucose monitor, e.g., an Accu-chek® Advantage glucometer (Roche Diagnostics®, Indianapolis, Ind.). The area under the curve (AUC) during the GTT is calculated using a commercially available software program, e.g., GraphPad Prism software. GTT experiments for different groups are run in parallel. At each time point of the tail vein glucose measurements, ˜40 μL of tail vein blood is collected and plasma is prepared for subsequent insulin level assays using ELISA/RIA for time points at 0, 15, and 30 min after glucose injections.
HSP90AB1 antisense oligonucleotides (ASO) specific to HSP90AB1 were administered to DIO mice. […]
The mice were divided into four groups: (1) lean (non-diabetic control); (2) diabetic receiving control ASO (NC-ASO); (3) diabetic receiving ASO5; and (4) diabetic receiving ASO6. […] Skeletal muscles were subjected to quantitative PCR.
At the end of the treatment period glucose tolerance was measured. […]

mU*mC*mC*mU*mC*mC*T*C*T*T*T*C*T*C*A*C*C*T*mU*mU*mC*mU*mC*mU (antisense UCCUCCTCTTTCTCACCTUUCUCU; sugars from the 5' end m6 d12 m6, all phosphorothioate, methylation of C not given here) [ASO6, modified antisense oligonucleotide derived from the mouse HSP90AB1 gene]
fed insulin levels [1]: significant reduction | Hsp90ab1 mRNA level in the gastrocnemius muscles [2]: effective; also recorded: reduce | fed glucose level ([3]; DIO mice, eight weeks treatment): significant improvement | fed glucose levels ([3]; HFD fed C57B/6 mice, 4 weeks treatment): suppressed | PDK4 expression (mRNA) in skeletal muscle ([4]; DIO mice (fed HFD), 4 weeks, vs NC): significant decrease | phosphorylation of PDH-E1α (S232, S293, S300) in skeletal muscle ([4]; DIO mice, Western blot): decreased | skeletal muscle mRNA level of Adipose triglyceride lipase (ATGL) ([4]; DIO mice, four weeks): sharp increase | expression of key genes that regulate glycolysis and lipid oxidation (PFKM, ALDOA, GYS1, ACCA, HSL, SCD1, ACADL, CPT1b) ([4]; DIO mice, four weeks, skeletal muscles): influences the expression | level of HSP90ab1 protein [5]: effective; also recorded: most effective | 18:0 and 18:0-OH acylcarnitines in muscle [6]: selectively decreased | 18:2 enriched species of cardiolipin in muscle [6]: increased | steric, oleic, and linoleic free fatty acids (FFA) in muscle [6]: decreased | level of human Hsp90AB1 mRNA [7]: knockdown; also recorded: reduced | glucose tolerance (IPGTT) [8]: significant improvement; also recorded: significantly improved
